Data on six molecules can be found in PubChem BioAssay (NCI).

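These data come from cells grown in 96-well plates and exposed to compound for 48 hours at five concentrations. GI50 is the concentration that inhibits growth by half. TGI: total growth inhibition.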

Among the test systems are T-47D breast; TK-10 renal; UO-31 renal; HOP-92 NSCLC; SW-620 colon; EKVX NSCLC; HL-60(TB) leukemia; LOX IMVI melanoma; SF-539 CNS; SK-MEL-28 melanoma.
Common to all, as to experiment: DTP human tumour cell line panel, 48 h

As to `COc1cc(OC)c(C(=O)/C=C/c2cccc(OC(C)=O)c2)cc1CC=C(C)C`, the GI50 is 4.15 µM in the experiment on T-47D breast; 23.6 µM in the experiment on TK-10 renal; 15.9 µM in the experiment on UO-31 renal; 8.52 µM with HOP-92 NSCLC; 7.02 µM in the experiment on SW-620 colon; 30.2 µM in the experiment with EKVX NSCLC. The GI50 with HL-60(TB) leukemia was 13.3 µM; with LOX IMVI melanoma, 6.29 µM; with SF-539 CNS, 8.62 µM; in the experiment on SK-MEL-28 melanoma, 9.52 µM. Moreover, the TGI is 16.7 µM with T-47D breast; greater than 50 µM with TK-10 renal; greater than 50 µM in the experiment with UO-31 renal; 39.8 µM in the experiment with HOP-92 NSCLC; 18.5 µM in the experiment with SW-620 colon; greater than 50 µM in the experiment with EKVX NSCLC. Besides, the TGI is greater than 50 µM in the experiment with HL-60(TB) leukemia, 13.1 µM in the experiment on LOX IMVI melanoma, 16.2 µM in the experiment on SF-539 CNS and 22.2 µM with SK-MEL-28 melanoma.

In the case of `CC(=O)OC1Oc2ccccc2-c2oc(=O)c(-c3cc4ccccc4oc3=O)cc21` (stereo not given), the GI50 in the experiment on T-47D breast was 21.3 µM; in the experiment with TK-10 renal, 18.3 µM; in the experiment with UO-31 renal, 18 µM; in the experiment with HOP-92 NSCLC, 19.3 µM; in the experiment with SW-620 colon, 65 µM; in the experiment on EKVX NSCLC it was 26.4 µM. For the same molecule, the GI50 in the experiment on HL-60(TB) leukemia is 39 µM; in the experiment with LOX IMVI melanoma, 14.9 µM; in the experiment with SF-539 CNS, 19.8 µM; in the experiment on SK-MEL-28 melanoma, 32.7 µM. Further, the TGI in the experiment on T-47D breast was 51.8 µM; in the experiment with TK-10 renal, 37.2 µM; with UO-31 renal, 35.4 µM; with HOP-92 NSCLC it was 45.6 µM; in the experiment on SW-620 colon it was greater than 100 µM; in the experiment on EKVX NSCLC, 74.6 µM. Moreover, the TGI in the experiment with HL-60(TB) leukemia was greater than 100 µM; in the experiment with LOX IMVI melanoma it was 29.6 µM; with SF-539 CNS, 39.2 µM; in the experiment on SK-MEL-28 melanoma, 87.3 µM.

Take `Cc1c(N=Cc2ccc(N(CCC#N)CCC#N)cc2)c(=O)n(-c2ccccc2)n1C`: the TGI in the experiment with T-47D breast was greater than 100 µM; in the experiment with TK-10 renal, 62.1 µM; in the experiment with UO-31 renal, greater than 100 µM; in the experiment on HOP-92 NSCLC, 99 µM; in the experiment with SW-620 colon, greater than 100 µM; in the experiment on EKVX NSCLC, greater than 100 µM. Moreover, the concentration for total growth inhibition (TGI) was greater than 100 µM in the experiment on HL-60(TB) leukemia, greater than 100 µM with LOX IMVI melanoma, 86.5 µM with SF-539 CNS and greater than 100 µM in the experiment on SK-MEL-28 melanoma.

Consider `O=C(COc1cccc(/C=C2\CSc3ccccc3C2=O)c1)c1ccc(Cl)cc1`, for which the GI50 with T-47D breast is 2.15 µM; in the experiment with TK-10 renal it was 1.88 µM; in the experiment on UO-31 renal, 1.63 µM; in the experiment with HOP-92 NSCLC it was 3.27 µM; in the experiment on SW-620 colon, 0.231 µM; with EKVX NSCLC, 7.45 µM. The GI50 is 3.57 µM in the experiment on HL-60(TB) leukemia, 1.39 µM with LOX IMVI melanoma, 3.05 µM in the experiment with SF-539 CNS and 1.78 µM in the experiment on SK-MEL-28 melanoma. For the same molecule, the TGI in the experiment with T-47D breast worked out at 5.43 µM; in the experiment on TK-10 renal it was 4.42 µM; in the experiment with UO-31 renal it was 3.32 µM; with HOP-92 NSCLC it was 44.2 µM; with SW-620 colon, 0.606 µM; in the experiment on EKVX NSCLC it was 17.5 µM. Moreover, the TGI is greater than 21 µM in the experiment on HL-60(TB) leukemia, 2.73 µM in the experiment on LOX IMVI melanoma, 8.22 µM in the experiment with SF-539 CNS and 3.46 µM with SK-MEL-28 melanoma.

`CCNCCCn1c2c(c3ccc([N+](=O)[O-])cc3c1=O)C(=O)c1cc(OC)cnc1-2`: the GI50 in the experiment on T-47D breast was 0.036 µM; in the experiment on TK-10 renal, 0.294 µM; with UO-31 renal it was 0.0327 µM; in the experiment with HOP-92 NSCLC, 0.471 µM; in the experiment on SW-620 colon it was 0.0653 µM; in the experiment with EKVX NSCLC, 0.204 µM. The GI50 is 0.037 µM in the experiment with HL-60(TB) leukemia, 0.0265 µM in the experiment with LOX IMVI melanoma, 0.0696 µM in the experiment with SF-539 CNS and 0.227 µM with SK-MEL-28 melanoma. Also, the TGI in the experiment on T-47D breast was found to be 12 µM; in the experiment with TK-10 renal it was 1.47 µM; in the experiment on UO-31 renal, 0.176 µM; in the experiment with HOP-92 NSCLC it was 17.4 µM; in the experiment on SW-620 colon, 3.57 µM; in the experiment on EKVX NSCLC it was 1.27 µM. For the same molecule, the TGI with HL-60(TB) leukemia was 0.657 µM; with LOX IMVI melanoma it was 0.131 µM; in the experiment with SF-539 CNS, 0.579 µM; with SK-MEL-28 melanoma, 1.56 µM.

Regarding `C[C@H](N)C(=O)N1C[C@H](CCCB(O)O)[C@](N)(C(=O)O)C1`, the GI50 with T-47D breast, in the experiment with TK-10 renal, in the experiment on UO-31 renal, with HOP-92 NSCLC, in the experiment with SW-620 colon and with EKVX NSCLC was greater than 100 µM throughout. The GI50 with HL-60(TB) leukemia, in the experiment with LOX IMVI melanoma, in the experiment on SF-539 CNS and in the experiment on SK-MEL-28 melanoma was greater than 100 µM in each case. In addition, the TGI with T-47D breast, with TK-10 renal, in the experiment with UO-31 renal, in the experiment on HOP-92 NSCLC, in the experiment with SW-620 colon and in the experiment with EKVX NSCLC was greater than 100 µM each time. For the same molecule, the concentration for total growth inhibition (TGI) in the experiment with HL-60(TB) leukemia, in the experiment with LOX IMVI melanoma, in the experiment with SF-539 CNS and in the experiment with SK-MEL-28 melanoma was greater than 100 µM throughout.

The GI50 is the concentration at which growth is held to half of that of the control. Usually TGI stands for the concentration at which net growth stops. Read a high TGI as less potent growth arrest.
